The values that follow come from patent publication US7019014B2, “Process for producing anticancer agent LL-D45042” (Wyeth Holdings Corporation, priority 2003, dated 2006).

In brackets after ≈: the same amount, converted by molar mass.

Assay [1] has as its system brain cancer line U87MG. The experiment in a line: In vitro anticancer test: growth inhibition in U87MG tumour cells. The following applies: Homo sapiens, U-87 MG, PTEN mutant, multi-dose testing. The format is cell-based. On the procedure: (§1) The in vitro anticancer activity of LL-D45042 is determined by measuring the concentration of compound required to inhibit the growth of 50% of cells in two tumour cell lines. […] The elevated sensitivity is due to its genetic mutation in the PTEN tumor suppressor gene leading to constitutive activation of mTOR signaling pathway. […] LL-D45042 is also evaluated in a binding assay of FKBP12, a cellular receptor of rapamycin, to determine its binding affinity. The results are given in Table 2, with IC50's reported in units of ng/mL.
(§2) These determinations are made by multi-dose testing of LL-D45042 and direct comparisons to the reference samples.

The next assay deals with FKBP12 (Homo sapiens, UniProt P62942). The experiment in a line: FKBP12 binding assay. The following applies: FKBP12, a cellular receptor of rapamycin; read-out: Protein Binding, FKBP (IC50) (converted). On the procedure: as §1, §2
FKBP12, sequence (P62942 whole entry, species assumed): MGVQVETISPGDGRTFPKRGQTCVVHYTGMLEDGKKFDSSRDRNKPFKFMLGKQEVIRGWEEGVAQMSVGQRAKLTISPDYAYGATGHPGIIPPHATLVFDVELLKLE
Assay [2] relates to breast cancer line MDA435. The experiment in a line: In vitro anticancer test: growth inhibition in MDA435 tumour cells. The format is cell-based. The following applies: no PTEN mutation, multi-dose testing. On the procedure: as §1, §2
In assay [3] the test system is brain cancer line U87MG. The following applies: previously established; PTEN mutation, constitutive mTOR activation; cited from earlier work.
Assay [4] has as its system breast cancer line MDA435. The following applies: previously established; no PTEN mutation; cited from earlier work.

For orientation: IC50 means the concentration that inhibits the measured activity by half. Turning to `CO[C@@H]1C[C@H](C[C@@H](C)[C@@H]2CC(=O)[C@H](C)/C=C(\C)[C@@H](O)[C@@H](O)C(=O)[C@H](C)C[C@H](C)/C=C/C=C/C=C(\C)[C@@H](O)C[C@@H]3CC[C@@H](C)[C@](O)(CC(=O)N4CCCC[C@H]4C(=O)O2)O3)CC[C@H]1O` [LL-D45042], the IC50 in the assay on brain cancer line U87MG [1] is 0.035 µg/mL (≈ 0.0401 µM); at FKBP12 it was 0.401 µM; in assay [2], over 1 µg/mL.

With `CO[C@H]1C[C@@H]2CC[C@@H](C)[C@@](O)(O2)C(=O)C(=O)N2CCCC[C@H]2C(=O)O[C@H]([C@H](C)C[C@@H]2CC[C@@H](O)[C@H](OC)C2)CC(=O)[C@H](C)/C=C(\C)[C@@H](O)[C@@H](OC)C(=O)[C@H](C)C[C@H](C)/C=C/C=C/C=C/1C` [rapamycin, Rapamycin], the “Sensitivity of U87MG to growth inhibition” value with brain cancer line U87MG [3] was “highly sensitive”. Moreover, in assay [4], the “Sensitivity of MDA435 to growth inhibition” value is on record as “rapamycin-resistant phenotype”.
